What was measured:
[1] = tested on: FoxO1; assay: FOXO1 inhibitor injection in rats with ADM cardiomyopathy; format: in vivo, rat; conditions: total dose 24 mg/kg ip
Procedure: Animal protocol-4: Specific FOXO1 inhibitor (AS1842856, a small molecular compound from Millipore) was injected into rats with ADM cardiomyopathy to investigate if FOXO1 mediates ADM cardiomyopathy. There were 3 groups of rats as follows: (1) normal control rats, n=6; (2) ADM injection only group at total dose of 15 mg/kg/ip, 2.5 mg/kg/ip 6 times over 2 weeks, (n=6); (3) ADM at total dose of 15 mg/kg/ip, 2.5 mg/kg/ip 6 times over 2 weeks plus FOXO1 inhibitor injection (at total dose of 24 mg/kg/ip, 4 mg/kg/ip 6 times over 2 weeks (n=6). All rats were killed 4 weeks after ADM injection.
(§1) Echocardiographic measurements of LV fractional shortening and LV posterior wall thickness were made from digital images acquired with a 12 MHz broadband transducer (S12 probe, Philips Ultrasound, Bothell, Wash.). Fractional shortening was evaluated from the following formula: FS=(LVIDd−LVIDs)/LVIDd×100.

[2] = tested on: FoxO1; assay: Myocardial nuclear FoxO1 in adriamycin cardiomyopathy rats (western blot, qRT-PCR); format: in vivo, rat
Procedure: Animal protocol-2: A total of 60 rats were divided into: (1) no treatment (normal control rats, n=12); (2) adriamycin (ADM)^38 injection only, at total dose of 15 mg/kg/ip, 2.5 mg/kg/ip 6 times over 2 weeks, n=12. (3) ADM plus GLP-1 peptide injection, at GLP-1 peptide fragment 7-37 human (dose of 50 nmol/kg/ip/time×6, N=12, from Sigma, St Louis, Mo.), (4) ADM injection plus UTMD-GLP1 peptide delivery (same dose of GLP-1 peptide fragment 7-37 human mixed with microbubble for UTMD), n=12; (5) ADM injection plus UTMD with pXL-BASII-CI-GLP-1/pCI-hyPB, n=12. Half rats were killed at 16 hours after last ADM injection; other half rats were killed at 4 weeks after UTMD. The thymidine analog, 5-bromo-2-deoxyuridine (BrdU) (100 mg/kg) was injected intraperitoneally 6 hours prior to euthanasia. […]
(§2) Nuclear proteins extracts from cardiac tissue with a NE-PER Nuclear and Cytoplasmic Extraction Kit (Thermo Scientific, Rockford, Ill. 61105, USA). Protein concentrations were determined using the BCA-200 Protein Assay kit (Pierce); equal amounts of protein were separated by SDS-PAGE. […] Horseradish peroxidase secondary antibodies were used, and chemiluminescence was determined using the Super Signal West Dura detection system (Pierce); nuclear marker (lamin) was used to confirm equal loading. […]

[3] = tested on: rat hearts with adriamycin cardiomyopathy; assay: Adriamycin cardiomyopathy in rats: gross pathology, Masson's trichrome staining, echocardiography; format: in vivo
Procedure: Animal protocol-2: A total of 60 rats were divided into: (1) no treatment (normal control rats, n=12); (2) adriamycin (ADM)^38 injection only, at total dose of 15 mg/kg/ip, 2.5 mg/kg/ip 6 times over 2 weeks, n=12. (3) ADM plus GLP-1 peptide injection, at GLP-1 peptide fragment 7-37 human (dose of 50 nmol/kg/ip/time×6, N=12, from Sigma, St Louis, Mo.), (4) ADM injection plus UTMD-GLP1 peptide delivery (same dose of GLP-1 peptide fragment 7-37 human mixed with microbubble for UTMD), n=12; (5) ADM injection plus UTMD with pXL-BASII-CI-GLP-1/pCI-hyPB, n=12. Half rats were killed at 16 hours after last ADM injection; other half rats were killed at 4 weeks after UTMD. The thymidine analog, 5-bromo-2-deoxyuridine (BrdU) (100 mg/kg) was injected intraperitoneally 6 hours prior to euthanasia.
Animal protocol-3: UTMD was performed after established adriamycin cardiomyopathy defined as a fractional shortening <30% by echocardiography. There were 3 groups of rats as follows: (1) normal control rats, n=6; (2) UTMD with pXL-BASII-CI-DsRed/pCI-hyPB (n=6); (3) UTMD with pXL-BASII-CI-GLP-1/pCI-hyPB (n=12). All rats were killed 4 weeks after UTMD. The thymidine analog, 5-bromo-2-deoxyuridine (BrdU) (100 mg/kg) was injected intraperitoneally 6 hours prior to euthanasia.
Piggybac transposon donor plasmids and helper plasmids ratio (pXL-BASII-CI-GLP-1/pCI-hyPB) was 5:1. Microbubble or control solutions (0.5 ml diluted with 0.5 ml phosphate-buffered solution (PBS)) were infused over 5 min via pump (Genie, Kent Scientific, Torrington, Conn.). During the infusion, ultrasound was directed to the heart using a commercially available ultrasound transducer (S3, Sonos 5500, Philips Ultrasound, Bothell, Wash.). […]
as §1

[4] = tested on: HL-1 cardiac muscle cell line; assay: Nuclear FoxO1 in HL-1 cardiac muscle cell line treated with adriamycin (immunofluorescent staining); format: cell-based; conditions: 0.25, 0.5, and 1.0 μM, 48 hrs, HL-1 cells
Procedure: The HL-1 cell line was a generous gift from Dr. William C. Claycomb^40 in Louisiana State University Medical Center, New Orleans, La. The cells were maintained in Claycomb basal medium (Sigma) supplemented with 10% fetal bovine serum, 0.1 mM norepinephrine and 2 mM L-glutamine. HL-1 cells were treated with adriamycin at 0 μM, 0.25 μM, 0.50 μM, or 1.00 μM for 48 hrs in complete growth medium, and were subjected to immunofluorescent staining.

[5] = tested on: Topoisomerase IIβ; assay: Myocardial nuclear topoisomerase IIβ expression (western blot, qRT-PCR); format: in vivo, rat; conditions: ADM only or ADM plus UTMD-GLP-1NLS groups, P<0.001
Procedure: […] Half rats were killed at 16 hours after last ADM injection; other half rats were killed at 4 weeks after UTMD. The thymidine analog, 5-bromo-2-deoxyuridine (BrdU) (100 mg/kg) was injected intraperitoneally 6 hours prior to euthanasia.
Total RNA was isolated from 100 mg of harvested heart using the Trizol reagent (Invitrogen), according to the manufacturer's instructions and reverse-transcribed using Superscript III RT (Invitrogen). Real-time RT-qPCR analysis was performed on an ABI 7700 Sequence Detector (Applied Biosystems) using SYBR Green (RT2 SYBR Green qPCR Kit, Qiagen). Data were normalized to HKG expression (endogenous control). Changes in gene expression were normalized to control rat heart tissue. Complementary DNA PCR primer sequences information should be requested to the correspondence author.
as §2

[6] = intravenous infusions, patients with myocardial infarction or chronic heart failure; cited from earlier work

Compound: CCn1cc(C(=O)O)c(=O)c2c(N)c(F)c(NC3CCCCC3)cc21 [AS1842856]
- activation of myocardial nuclear FoxO1 ([1]; ADM cardiomyopathy rats, FIG. 12): able to block
- ADM cardiomyopathy (fractional shortening, LVPWd) ([1]; FIG. 12 panel A-B): reverse

Compound: COc1cccc2c1C(=O)c1c(O)c3c(c(O)c1C2=O)C[C@@](O)(C(=O)CO)C[C@@H]3O[C@H]1C[C@H](N)[C@H](O)[C@H](C)O1 [Adriamycin, adriamycin]
- FoxO1 mRNA level, fold relative to normal control or normal plus UTMD-GLP-1NLS groups ([2]; qRT-PCR, FIG. 6B, ADM only group, or ADM after UTMD GLP-1NLS gene delivery): 12.6 fold
- FoxO1 in cardiac nuclear protein extracts ([2]; western blots, FIG. 6A): significant increase
- LV mass and wall thickness ([3]; echocardiography, adriamycin cardiomyopathy, total dose 15 mg/kg ip): decreased
- gross pathology of LV walls and cavities compared to normal controls ([3]; rats with adriamycin cardiomyopathy, FIG. 2 B, C): thin LV walls and dilated LV cavities
- overexpression of nuclear FoxO1 [4]: significantly activates
- TOP IIβ mRNA level in normal group, fold greater than in the treated group [5]: 18 fold

Compound: GLP-1 peptide fragment 7-37 human (HAEGTFTSDVSSYLEGQAAKEFIAWLVKGRG; Glucagon-like peptide 1(7-37); UniProt P01275 98-128, looked up) [GLP-1 peptide fragment 7-37 human from Sigma, injected ip]
- LV mass and wall thickness in adriamycin cardiomyopathy after therapy ([3]; echocardiography, FIGS. 4 and 11): not

Compound: GLP-1 protein: GLP-1 protein given by intravenous infusion to patients in cited studies
- global LV function and the function of ischemic LV segments [6]: improved

Reference: patent US10028902B2, “Nuclear localization of GLP-1 stimulates myocardial regeneration and reverses heart failure” (BAYLOR RESEARCH INSTITUTE, priority 2013, dated 2018)
